Several values for one entry are separate records, joined by “and”; a condition that tells them apart may be missing. Equal entries are not always repeated. Toxic doses and inconclusive results are not listed.
Tested on: L1210 leukemia ip in BDF1 mice, survival T/C
Assay: NCI In Vivo Anticancer Drug Screen. Data for tumor model L1210 Leukemia (intraperitoneal) in B6D2F1 (BDF1) mice
Settings: endpoint: mean survival time, higher = longer survival
Summary of the method: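 Ratio derived from survival: compound-dosed mice over vehicle-dosed mice, all bearing a transplantable tumor.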

[1] = dose: 100.0 mg/kg/injection, schedule: Q04DX003 (ip), vehicle: saline
[2] = dose: 200.0 mg/kg/injection, schedule: Q04DX003 (ip), vehicle: saline
[3] = dose: 100.0 mg/kg/injection, schedule: Q01DX009 (ip), vehicle: saline with Tween-80
[4] = dose: 200.0 mg/kg/injection, schedule: Q01DX009 (ip), vehicle: saline with Tween-80
[5] = dose: 100.0 mg/kg/injection, schedule: Q01DX009 (ip), vehicle: saline
[6] = dose: 200.0 mg/kg/injection, schedule: Q01DX009 (ip), vehicle: saline
[7] = dose: 400.0 mg/kg/injection, schedule: Q01DX009 (ip), vehicle: saline
[8] = dose: 400.0 mg/kg/injection, schedule: Q04DX003 (ip), vehicle: saline
[9] = dose: 100.0 mg/kg/injection, schedule: Q01DX009 (ip), vehicle: Klucel (hydroxypropylcellulose) (HPC)
[10] = dose: 200.0 mg/kg/injection, schedule: Q01DX009 (ip), vehicle: Klucel (hydroxypropylcellulose) (HPC)
[11] = dose: 400.0 mg/kg/injection, schedule: Q01DX009 (ip), vehicle: Klucel (hydroxypropylcellulose) (HPC)
[12] = dose: 100.0 mg/kg/injection, schedule: Q04DX002 (ip), vehicle: Klucel (hydroxypropylcellulose) (HPC)
[13] = dose: 200.0 mg/kg/injection, schedule: Q04DX002 (ip), vehicle: Klucel (hydroxypropylcellulose) (HPC)
[14] = dose: 400.0 mg/kg/injection, schedule: Q04DX002 (ip), vehicle: Klucel (hydroxypropylcellulose) (HPC)
[15] = dose: 100.0 mg/kg/injection, schedule: Q01DX001 (ip), vehicle: saline with Tween-80
[16] = dose: 200.0 mg/kg/injection, schedule: Q01DX001 (ip), vehicle: saline with Tween-80
[17] = dose: 400.0 mg/kg/injection, schedule: Q01DX001 (ip), vehicle: saline with Tween-80
[18] = dose: 100.0 mg/kg/injection, schedule: Q04DX003 (ip), vehicle: Klucel (hydroxypropylcellulose) (HPC)
[19] = dose: 200.0 mg/kg/injection, schedule: Q04DX003 (ip), vehicle: Klucel (hydroxypropylcellulose) (HPC)
[20] = dose: 400.0 mg/kg/injection, schedule: Q04DX003 (ip), vehicle: Klucel (hydroxypropylcellulose) (HPC)
[21] = dose: 50.0 mg/kg/injection, schedule: Q01DX009 (ip), vehicle: Klucel (hydroxypropylcellulose) (HPC)
[22] = dose: 25.0 mg/kg/injection, schedule: Q01DX009 (ip), vehicle: Klucel (hydroxypropylcellulose) (HPC)

## CC1CC[N-]CC1.CC1CC[N-]CC1.[Br][Pt+2]([Br])([Br])[Br]
dose: 6.25 mg/kg/injection, schedule: Q01DX009 (ip), vehicle: saline with Tween-80
  T/C: 108 % of control
dose: 12.5 mg/kg/injection, schedule: Q01DX009 (ip), vehicle: saline with Tween-80
  T/C: 113 % of control
dose: 12.5 mg/kg/injection, schedule: Q04DX003 (ip), vehicle: saline with Tween-80
  T/C: 104 % of control
dose: 25.0 mg/kg/injection, schedule: Q04DX003 (ip), vehicle: saline with Tween-80
  T/C: 105 % of control

## [Cl][Dy]([Cl])[Cl]
[1]
  T/C: 103 % of control
[2]
  T/C: 114 % of control

## CC(C)(CBr)COC(=O)Nc1ccc2ccccc2c1
dose: 50.0 mg/kg/injection, schedule: Q01DX009 (ip), vehicle: saline with Tween-80
  T/C: 95 % of control
[3]
  T/C: 95 % of control
[4]
  T/C: 88 % of control

## COc1cc(NC(=O)Nc2cccc(Cl)c2)c(OC)cc1Cl
dose: 25.0 mg/kg/injection, schedule: Q04DX002 (ip), vehicle: saline with Tween-80
  T/C: 99 % of control
dose: 50.0 mg/kg/injection, schedule: Q04DX002 (ip), vehicle: saline with Tween-80
  T/C: 99 % of control
dose: 100.0 mg/kg/injection, schedule: Q04DX002 (ip), vehicle: saline with Tween-80
  T/C: 96 % of control

## CCCCNC(=O)OCC(C)(CCC)COC(N)=O (centres undefined)
dose: 25.0 mg/kg/injection, schedule: Q01DX009 (ip), vehicle: saline
  T/C: 101 % of control
dose: 25.0 mg/kg/injection, schedule: Q04DX003 (ip), vehicle: saline
  T/C: 95 % of control
dose: 50.0 mg/kg/injection, schedule: Q01DX009 (ip), vehicle: saline
  T/C: 101 % of control
dose: 50.0 mg/kg/injection, schedule: Q04DX003 (ip), vehicle: saline
  T/C: 95 % of control
[5]
  T/C: 109 % of control
[1]
  T/C: 101 % of control
[6]
  T/C: 104 % of control
[2]
  T/C: 95 % of control
[7]
  T/C: 103 % of control
[8]
  T/C: 95 % of control

## O=C(Nc1cccc(F)c1)Nc1ccc2ccccc2c1
[9]
  T/C: 105 % of control
[10]
  T/C: 97 % of control
[11]
  T/C: 97 % of control

## C=NCC#N
[3]
  T/C: 91 % of control
[4]
  T/C: 91 % of control
dose: 400.0 mg/kg/injection, schedule: Q01DX009 (ip), vehicle: saline with Tween-80
  T/C: 93 % of control

## CCNC(=O)OCC1C2CCC(O2)C1COC(=O)NCC (centres undefined)
[12]
  T/C: 101 % of control
[13]
  T/C: 98 % of control
[14]
  T/C: 98 % of control

## Nc1ccnc(SCc2ccccc2)n1
[15]
  T/C: 90 % of control
[16]
  T/C: 93 % of control
[17]
  T/C: 93 % of control

## CCCC(=O)c1ccc(OC)c(OC)c1
[9]
  T/C: 101 % of control
[10]
  T/C: 95 % of control

## Cc1ccc(/C([O-])=C(\C(=S)Nc2cccc(C(F)(F)F)c2)[n+]2ccccc2)cc1
[9]
  T/C: 103 % of control
[10]
  T/C: 103 % of control
[11]
  T/C: 94 % of control

## O=C(N/N=C/c1ccc2c(c1)CCC2)c1cccc(O)c1
[18]
  T/C: 96 % of control
[19]
  T/C: 95 % of control
[20]
  T/C: 91 % of control

## CCOC(=O)c1ccc(NC(=O)N(CCCl)N=O)cc1
dose: 9.0 mg/kg/injection, schedule: Q01DX001 (ip), vehicle: carboxymethylcellulose (CMC)
  T/C: 215 % of control
dose: 18.7 mg/kg/injection, schedule: Q01DX001 (ip), vehicle: carboxymethylcellulose (CMC)
  T/C: 157 % of control

## CC(=O)NC1CCC2CCCCC2C1 (centres undefined)
dose: 100.0 mg/kg/injection, schedule: Q01DX001 (ip), vehicle: Klucel (hydroxypropylcellulose) (HPC)
  T/C: 97 % of control
[9]
  T/C: 103 % of control
[18]
  T/C: 97 % of control
dose: 200.0 mg/kg/injection, schedule: Q01DX001 (ip), vehicle: Klucel (hydroxypropylcellulose) (HPC)
  T/C: 101 % of control
[10]
  T/C: 95 % of control
[19]
  T/C: 99 % of control
dose: 400.0 mg/kg/injection, schedule: Q01DX001 (ip), vehicle: Klucel (hydroxypropylcellulose) (HPC)
  T/C: 101 % of control
[11]
  T/C: 98 % of control
[20]
  T/C: 96 % of control

## O=C(c1ccco1)c1cc(Cl)c(Cl)cc1Cl
[15]
  T/C: 100 % of control
[16]
  T/C: 95 % of control
[17]
  T/C: 98 % of control

## O=C1CC=C(Nc2ccc(Br)cc2)C(=O)O1
[1]
  T/C: 106 % of control
[2]
  T/C: 108 % of control
[8]
  T/C: 108 % of control

## CCCCOS(=O)(=O)c1ccc(N)cc1
[21]
  T/C: 229 % of control
[9]
  T/C: 90 % of control
[10]
  T/C: 93 % of control

## CCCCNC(=O)Nc1ccc(Cl)cc1C(=O)c1ccccc1
[12]
  T/C: 105 % of control
[13]
  T/C: 102 % of control
[14]
  T/C: 94 % of control

## CC(C)NNC(=O)c1ccccc1N
[22]
  T/C: 103 % of control
dose: 25.0 mg/kg/injection, schedule: Q04DX003 (ip), vehicle: Klucel (hydroxypropylcellulose) (HPC)
  T/C: 96 % of control
[21]
  T/C: 98 % of control
dose: 50.0 mg/kg/injection, schedule: Q04DX003 (ip), vehicle: Klucel (hydroxypropylcellulose) (HPC)
  T/C: 89 % of control
[9]
  T/C: 93 % of control
[18]
  T/C: 91 % of control
[10]
  T/C: 92 % of control
[19]
  T/C: 100 % of control
[20]
  T/C: 94 % of control

## CC(=O)CCCc1ccccc1
[5]
  T/C: 92 % of control
[1]
  T/C: 100 % of control
[6]
  T/C: 98 % of control
[2]
  T/C: 100 % of control
[7]
  T/C: 104 % of control

## CCC(c1ccc(OC)cc1)C(O)(CC)c1ccc(OC)cc1 (centres undefined)
[18]
  T/C: 98 % of control
[19]
  T/C: 98 % of control
[20]
  T/C: 102 % of control

## O=S(=O)(O)CCNC(=S)C(=S)NCCS(=O)(=O)O
dose: 100.0 mg/kg/injection, schedule: Q04DX002 (ip), vehicle: saline
  T/C: 101 % of control
dose: 200.0 mg/kg/injection, schedule: Q04DX002 (ip), vehicle: saline
  T/C: 101 % of control
dose: 400.0 mg/kg/injection, schedule: Q04DX002 (ip), vehicle: saline
  T/C: 101 % of control

## CC(/C=N/N=C(N(C)C)N(C)C)=N/N=C(N(C)C)N(C)C
dose: 15.0 mg/kg/injection, schedule: Q01DX Z (ip), vehicle: methylcellulose (MC)
  T/C: 94 % of control
dose: 30.0 mg/kg/injection, schedule: Q01DX Z (ip), vehicle: methylcellulose (MC)
  T/C: 97 % of control
dose: 30.0 mg/kg/injection, schedule: Q01DX Z (oral), vehicle: methylcellulose (MC)
  T/C: 102 % of control
dose: 60.0 mg/kg/injection, schedule: Q01DX Z (ip), vehicle: methylcellulose (MC)
  T/C: 97 % of control
dose: 60.0 mg/kg/injection, schedule: Q01DX Z (oral), vehicle: methylcellulose (MC)
  T/C: 95 % of control
dose: 120.0 mg/kg/injection, schedule: Q01DX Z (ip), vehicle: methylcellulose (MC)
  T/C: 101 % of control

## O=C1C=C(Nc2ccc(Cl)cc2)c2ccccc2C1=O
dose: 100.0 mg/kg/injection, schedule: Q01DX001 (ip), vehicle: other
  T/C: 98 % of control
dose: 200.0 mg/kg/injection, schedule: Q01DX001 (ip), vehicle: other
  T/C: 90 % of control
dose: 400.0 mg/kg/injection, schedule: Q01DX001 (ip), vehicle: other
  T/C: 95 % of control

## CCS(=O)(=O)OCCCl
[22]
  T/C: 94 % of control
dose: 25.0 mg/kg/injection, schedule: Q04DX002 (ip), vehicle: Klucel (hydroxypropylcellulose) (HPC)
  T/C: 97 % of control
[21]
  T/C: 93 % of control
dose: 50.0 mg/kg/injection, schedule: Q04DX002 (ip), vehicle: Klucel (hydroxypropylcellulose) (HPC)
  T/C: 94 % of control
dose: 100.0 mg/kg/injection, schedule: Q01DX001 (ip), vehicle: carboxymethylcellulose (CMC)
  T/C: 112 % of control
[12]
  T/C: 102 % of control and 90 % of control
dose: 200.0 mg/kg/injection, schedule: Q01DX001 (ip), vehicle: carboxymethylcellulose (CMC)
  T/C: 116 % of control

## COC(=O)C1(C)CCCC2(C)c3cc(O)c(C(C)C)cc3CCC12 (centres undefined)
dose: 100.0 mg/kg/injection, schedule: Q01DX001 (ip), vehicle: acetone
  T/C: 88 % of control
dose: 200.0 mg/kg/injection, schedule: Q01DX001 (ip), vehicle: acetone
  T/C: 90 % of control
dose: 400.0 mg/kg/injection, schedule: Q01DX001 (ip), vehicle: acetone
  T/C: 93 % of control

Source: PubChem BioAssay AID248 (DTP/NCI, 2004)
